# Laboratory results published in PubChem BioAssay (NCI).
#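 Five concentrations, 48 hours, 96-well plates. Abbreviation: GI50, concentration required for 50% inhibition of growth. Definition used: TGI = concentration required for complete inhibition of growth.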
# System: OVCAR-3 ovarian
# Experiment: inhibition of tumour cell growth, NCI panel, 48 h
Compound,TGI [µM],GI50 [µM]
Cc1ccc(C2=Nc3ccccc3SC(c3cccc([N+](=O)[O-])c3)C2)cc1 (centres undefined),60,–
CN1CCC(n2cnc(-c3ccc(F)cc3)c2-c2ccnc(N)n2)CC1,> 25,11
COc1cc(/C=C/[N+](=O)[O-])cc(Br)c1OC,10.2,3.23
CN(CC(N)=O)C(=O)N(CCCl)N=O,> 100,–
Cc1ccc(NC(=O)c2ccccc2C(=O)O)cc1C,> 100,–
CC(C)=CCC/C(C)=C/CC/C(C)=C/CC/C=C(\C)CC/C=C(\C)CCC(=O)Nc1ccn(C2OC(CO)C(O)C2(F)F)c(=O)n1 (centres undefined),4.48,–
COc1ccc(-c2cc(=O)c3c(OC)c(OC)c(OC)c(OC)c3o2)cc1,> 100,–
CC(C)(C)CN1CCn2c(nc3c(N)nccc32)S1,29.3,12.3
COc1ccc2c(c1)OC1=C(C(=O)OC1)C2c1cc(OC)c2c(c1)OCO2 (centres undefined),0.0458,0.0214
Cc1c(C2=C(c3cn(C)c4ccccc34)C(=O)NC2=O)c2ccccc2n1C,4.73,0.882
CC1(C)CCC[C@]2(C)[C@@H](C=O)C(C=O)=CC[C@@H]12,28,–
CCn1c2ccccc2c2cc(/C=C(/C#N)C(N)=O)ccc21,19.1,3.43
COc1ccc(C(=O)N2c3ccccc3Sc3ccccc32)c(OC)c1,1.14,0.322
CN1CCN(CC(O)COc2c(Br)c(Br)c(Br)c3c2OC(C)(C)C3)CC1 (centres undefined),17.4,3.56
CCN1C(=O)N(CC)C2C1NN=c1s/c(=C3\C(=O)N(CCc4ccccc4)c4ccccc43)c(=O)n12 (centres undefined),0.901,0.291

# System: SN12C renal
# Experiment: inhibition of tumour cell growth, NCI panel, 48 h
Compound,GI50 [µM],TGI [µM]
CC(=O)c1c(C(F)(F)F)n([O-])c2ccc(C)cc2[n+]1=O,1.5,4.72
COc1ccc(/C=N/NC(=O)Cn2c(-c3ccc(S(C)(=O)=O)cc3)nc3cc(Cl)ccc32)cc1,2.59,> 50
COc1cc2c(c(OC)c1OC)-c1ccc(SC)c(=O)cc1[C@@H](NC1OC(CO)C(O)C(O)C1O)CC2 (some centres undefined),0.0557,> 100
CCOc1nc(N)nc(C)c1N=Nc1ccc(Cl)cc1,–,86.4
CCN(Cc1ccc(Cl)s1)c1ccc(CO)c(Cl)c1,7.08,22.3
Nc1ccccc1SCc1csc(-c2ccc(Cl)cc2)n1,–,34.2
CSC(=S)N/N=C(\C)c1cccc(C)n1,–,21.9
N#Cc1c(N)[nH]c2ccc(Sc3ccccc3)cc12,–,6.64
COc1ccc(OC)c(C2SCC(=O)N2NC(=O)C(O)c2ccccc2)c1 (centres undefined),> 100,> 100
CCN1C(=O)N(CC)C2C1NN=c1s/c(=C\c3ccccc3Br)c(=O)n12 (centres undefined),0.0519,31.2
O=C(O)COc1c(Cl)cc(Cl)c2cccnc12,–,> 100
CC(C)(C)c1ccc(C(=O)Nc2sc3c(c2C(N)=O)CCC(=O)C3)cc1,0.654,2.05
O=C(Nc1cccc(Nc2ncc(Br)c(NCCc3cnc[nH]3)n2)c1)N1CCCC1,2.88,33.6
C[C@@H]1O[C@@H](O[C@H]2CC[C@@]3(C)[C@H](CCC4[C@@H]3C(O)C[C@]3(C)[C@@H](c5ccc(=O)oc5)CC[C@]43O)C2)[C@H](O)[C@H](O)[C@H]1O (some centres undefined),< 0.00325,0.758
Cc1ccc(C2=Nc3ccccc3SC(c3cccc([N+](=O)[O-])c3)C2)cc1 (centres undefined),–,> 100
CN1CCC(n2cnc(-c3ccc(F)cc3)c2-c2ccnc(N)n2)CC1,6.43,> 25
COc1cc(/C=C/[N+](=O)[O-])cc(Br)c1OC,3.94,13.1
CN(CC(N)=O)C(=O)N(CCCl)N=O,–,> 100
Cc1ccc(NC(=O)c2ccccc2C(=O)O)cc1C,–,> 100
CC(C)=CCC/C(C)=C/CC/C(C)=C/CC/C=C(\C)CC/C=C(\C)CCC(=O)Nc1ccn(C2OC(CO)C(O)C2(F)F)c(=O)n1 (centres undefined),0.326,13.1
COc1ccc(-c2cc(=O)c3c(OC)c(OC)c(OC)c(OC)c3o2)cc1,–,> 100
CC(C)(C)CN1CCn2c(nc3c(N)nccc32)S1,6.55,> 100
COc1ccc2c(c1)OC1=C(C(=O)OC1)C2c1cc(OC)c2c(c1)OCO2 (centres undefined),0.102,> 100
Cc1c(C2=C(c3cn(C)c4ccccc34)C(=O)NC2=O)c2ccccc2n1C,15.5,> 25
CC1(C)CCC[C@]2(C)[C@@H](C=O)C(C=O)=CC[C@@H]12,–,39.9
CCn1c2ccccc2c2cc(/C=C(/C#N)C(N)=O)ccc21,43.6,> 100
COc1ccc(C(=O)N2c3ccccc3Sc3ccccc32)c(OC)c1,0.586,> 100
CN1CCN(CC(O)COc2c(Br)c(Br)c(Br)c3c2OC(C)(C)C3)CC1 (centres undefined),11.8,31.6
CCN1C(=O)N(CC)C2C1NN=c1s/c(=C3\C(=O)N(CCc4ccccc4)c4ccccc43)c(=O)n12 (centres undefined),1.34,–

# System: MCF7 breast
# Experiment: inhibition of tumour cell growth, NCI panel, 48 h
Compound,GI50 [µM],TGI [µM]
CC(=O)c1c(C(F)(F)F)n([O-])c2ccc(C)cc2[n+]1=O,4,> 100
COc1ccc(/C=N/NC(=O)Cn2c(-c3ccc(S(C)(=O)=O)cc3)nc3cc(Cl)ccc32)cc1,1.92,> 50
COc1cc2c(c(OC)c1OC)-c1ccc(SC)c(=O)cc1[C@@H](NC1OC(CO)C(O)C(O)C1O)CC2 (some centres undefined),0.0215,> 100
CCOc1nc(N)nc(C)c1N=Nc1ccc(Cl)cc1,–,> 100
CCN(Cc1ccc(Cl)s1)c1ccc(CO)c(Cl)c1,0.119,12.3
Nc1ccccc1SCc1csc(-c2ccc(Cl)cc2)n1,–,71.8
CSC(=S)N/N=C(\C)c1cccc(C)n1,–,> 13.2
N#Cc1c(N)[nH]c2ccc(Sc3ccccc3)cc12,–,16.6
COc1ccc(OC)c(C2SCC(=O)N2NC(=O)C(O)c2ccccc2)c1 (centres undefined),> 100,> 100
CCN1C(=O)N(CC)C2C1NN=c1s/c(=C\c3ccccc3Br)c(=O)n12 (centres undefined),0.0328,16.5
O=C(O)COc1c(Cl)cc(Cl)c2cccnc12,–,> 100
CC(C)(C)c1ccc(C(=O)Nc2sc3c(c2C(N)=O)CCC(=O)C3)cc1,0.402,2.96
O=C(Nc1cccc(Nc2ncc(Br)c(NCCc3cnc[nH]3)n2)c1)N1CCCC1,1.19,17.7
C[C@@H]1O[C@@H](O[C@H]2CC[C@@]3(C)[C@H](CCC4[C@@H]3C(O)C[C@]3(C)[C@@H](c5ccc(=O)oc5)CC[C@]43O)C2)[C@H](O)[C@H](O)[C@H]1O (some centres undefined),0.00828,0.0659
Cc1ccc(C2=Nc3ccccc3SC(c3cccc([N+](=O)[O-])c3)C2)cc1 (centres undefined),–,> 100
CN1CCC(n2cnc(-c3ccc(F)cc3)c2-c2ccnc(N)n2)CC1,1.32,> 25
COc1cc(/C=C/[N+](=O)[O-])cc(Br)c1OC,1.93,7.43
CN(CC(N)=O)C(=O)N(CCCl)N=O,–,> 100
Cc1ccc(NC(=O)c2ccccc2C(=O)O)cc1C,–,> 100
CC(C)=CCC/C(C)=C/CC/C(C)=C/CC/C=C(\C)CC/C=C(\C)CCC(=O)Nc1ccn(C2OC(CO)C(O)C2(F)F)c(=O)n1 (centres undefined),< 0.011,4.34
COc1ccc(-c2cc(=O)c3c(OC)c(OC)c(OC)c(OC)c3o2)cc1,–,> 100
CC(C)(C)CN1CCn2c(nc3c(N)nccc32)S1,3.97,37
COc1ccc2c(c1)OC1=C(C(=O)OC1)C2c1cc(OC)c2c(c1)OCO2 (centres undefined),0.0342,> 100
Cc1c(C2=C(c3cn(C)c4ccccc34)C(=O)NC2=O)c2ccccc2n1C,0.997,> 25
CC1(C)CCC[C@]2(C)[C@@H](C=O)C(C=O)=CC[C@@H]12,–,31
CCn1c2ccccc2c2cc(/C=C(/C#N)C(N)=O)ccc21,0.857,> 47.3
COc1ccc(C(=O)N2c3ccccc3Sc3ccccc32)c(OC)c1,0.45,> 100
CN1CCN(CC(O)COc2c(Br)c(Br)c(Br)c3c2OC(C)(C)C3)CC1 (centres undefined),3.33,14.5
CCN1C(=O)N(CC)C2C1NN=c1s/c(=C3\C(=O)N(CCc4ccccc4)c4ccccc43)c(=O)n12 (centres undefined),0.353,> 67.7
